Laboratory results from paper PMC10482691, “LTP induction by structural rather than enzymatic functions of CaMKII” (Nature, 2023).
Several values for one entry are separate records, joined by “and”; a condition that tells them apart may be missing. Equal values may be shown once.

What was measured:
[1] = biological target: MEK1(h) (Homo sapiens, UniProt Q02750); experiment: Kinase selectivity panel (residual activity at 1 μM); type: biochemical; conditions: inhibitor at 1 μM; read-out: residual kinase activity in % of maximal activity
[2] = biological target: GSK3α(h) (Homo sapiens, UniProt P49840); experiment: as above; type: biochemical; conditions: inhibitor at 1 μM; read-out: residual kinase activity in % of maximal activity
[3] = biological target: purified CaMKIIα binding to GST–GluN2B-c WT (Homo sapiens, UniProt Q9UQM7); experiment: CaMKII binding to immobilized GST–GluN2B-c in vitro; conditions: for bound CaMKIIα (immunoblot, relative): Ca2+/CaM
Procedure: CaMKII–GluN2B binding assays were done as described[9],[13],[25]. Briefly, GST–GluN2B-c tail (GST–2BC) was immobilized on anti-GST antibody-coated microtiter plates (Thermo Scientific), blocked for 30 min with 5% BSA and then overlaid with […] CaMKII (subunit concentration) in PIPES-buffered saline (pH 7.2) containing 2 mM Ca^2+, 1 μM CaM, 1 mM Mg^2+, 0.1% BSA and 0.1% Tween-20 for 20 min at room temperature. […] After extensive washes in buffer containing 1 mM EGTA, GST–2BC and bound CaMKII were eluted for 10 min in SDS loading buffer at 95 °C. Bound CaMKII was measured via immunoblot.

[4] = biological target: JNK2α2(h) (Homo sapiens, UniProt P45984); experiment: Kinase selectivity panel (residual activity at 1 μM); type: biochemical; conditions: inhibitor at 1 μM
[5] = biological target: CaMKIIδ(h) (Homo sapiens, UniProt Q13557); experiment: as above; type: biochemical; conditions: inhibitor at 1 μM; read-out: residual kinase activity in % of maximal activity
[6] = biological target: PKCα(h) (Homo sapiens, UniProt P17252); experiment: as above; type: biochemical; conditions: inhibitor at 1 μM; read-out: residual kinase activity in % of maximal activity

Chain of CaMKIIδ(h) (Q13557 whole entry): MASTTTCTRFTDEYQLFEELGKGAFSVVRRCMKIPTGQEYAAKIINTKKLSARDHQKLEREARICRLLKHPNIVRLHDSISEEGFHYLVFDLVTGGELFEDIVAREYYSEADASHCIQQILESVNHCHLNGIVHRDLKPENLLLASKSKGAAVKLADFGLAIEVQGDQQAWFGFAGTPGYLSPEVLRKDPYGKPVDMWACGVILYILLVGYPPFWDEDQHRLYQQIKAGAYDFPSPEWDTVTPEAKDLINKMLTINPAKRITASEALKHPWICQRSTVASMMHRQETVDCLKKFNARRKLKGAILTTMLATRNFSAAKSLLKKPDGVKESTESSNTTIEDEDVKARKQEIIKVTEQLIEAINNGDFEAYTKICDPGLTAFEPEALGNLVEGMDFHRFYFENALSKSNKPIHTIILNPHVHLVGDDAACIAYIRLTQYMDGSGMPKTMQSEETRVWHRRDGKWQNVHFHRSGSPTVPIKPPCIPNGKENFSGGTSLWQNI
Chain of MEK1(h) (Q02750 whole entry): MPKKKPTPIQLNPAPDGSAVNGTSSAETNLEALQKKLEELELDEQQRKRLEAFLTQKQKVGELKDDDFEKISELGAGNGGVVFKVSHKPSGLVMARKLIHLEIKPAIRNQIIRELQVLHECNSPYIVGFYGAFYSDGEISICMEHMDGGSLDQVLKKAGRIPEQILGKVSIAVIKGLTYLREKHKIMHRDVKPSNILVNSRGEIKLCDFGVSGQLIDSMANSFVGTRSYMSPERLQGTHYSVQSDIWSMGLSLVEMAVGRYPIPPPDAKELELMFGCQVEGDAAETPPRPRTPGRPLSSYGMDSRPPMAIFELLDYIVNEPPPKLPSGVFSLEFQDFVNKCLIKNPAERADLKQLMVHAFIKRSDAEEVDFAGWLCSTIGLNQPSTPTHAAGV
Chain of JNK2α2(h) (P45984 whole entry): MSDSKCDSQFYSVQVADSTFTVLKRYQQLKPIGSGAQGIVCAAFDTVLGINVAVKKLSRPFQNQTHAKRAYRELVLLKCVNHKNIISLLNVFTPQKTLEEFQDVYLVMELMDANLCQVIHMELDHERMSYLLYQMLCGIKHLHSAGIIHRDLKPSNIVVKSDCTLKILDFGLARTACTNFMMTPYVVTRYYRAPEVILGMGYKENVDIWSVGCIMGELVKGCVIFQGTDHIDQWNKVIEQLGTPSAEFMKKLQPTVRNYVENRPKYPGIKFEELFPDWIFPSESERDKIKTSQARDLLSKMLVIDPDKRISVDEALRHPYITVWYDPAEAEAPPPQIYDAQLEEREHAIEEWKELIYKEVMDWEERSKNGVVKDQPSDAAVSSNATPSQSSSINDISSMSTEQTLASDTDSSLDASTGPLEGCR
Chain of GSK3α(h) (P49840 whole entry): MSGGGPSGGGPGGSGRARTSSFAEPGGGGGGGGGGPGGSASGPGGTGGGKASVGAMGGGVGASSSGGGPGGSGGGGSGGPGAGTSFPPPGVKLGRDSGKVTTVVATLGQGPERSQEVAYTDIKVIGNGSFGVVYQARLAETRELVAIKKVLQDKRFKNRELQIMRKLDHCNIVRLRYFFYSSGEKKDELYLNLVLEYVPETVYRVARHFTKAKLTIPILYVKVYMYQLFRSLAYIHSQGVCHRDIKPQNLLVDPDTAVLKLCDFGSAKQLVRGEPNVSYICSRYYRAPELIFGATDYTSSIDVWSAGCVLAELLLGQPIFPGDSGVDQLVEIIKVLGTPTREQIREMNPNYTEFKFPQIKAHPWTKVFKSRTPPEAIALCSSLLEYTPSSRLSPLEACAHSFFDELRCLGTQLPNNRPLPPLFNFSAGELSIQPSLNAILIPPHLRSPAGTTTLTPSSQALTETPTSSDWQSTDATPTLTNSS

In the case of NCCNc1cccc(-c2ccnc3[nH]c4ccccc4c23)c1 [AS283], the remaining activity at 1 µM [1] is reported as 85%, the remaining activity at 1 µM [2] is reported as 82% and the “effect on CaMKII binding to GluN2B in vitro” value ([3]; 10 μM AS283 in the presence of ADP) is reported as “did not inhibit”. The “Ca2+/CaM-induced CaMKII binding when ATP was substituted with AS283” value ([3]; AS283 versus ATP) was “significantly enhanced”, the “bound CaMKIIα (immunoblot, relative)” value ([3]; 10 μM AS283, no nucleotide, GST–GluN2B-c WT) was 7.5135 and 8.574 and 8.878 and 7.419 and the “bound CaMKIIα (immunoblot, relative)” value ([3]; 1 mM ADP with 10 μM AS283) was 1.196 and 1.2737 and 1.086 and 1.094. For the same compound, the “residual kinase activity in % of maximal activity” value [4] was 82%, the remaining activity at 1 µM [5] was 2% and the remaining activity at 1 µM [6] was 49%.
